In patent US20040058914A1, “Combination drugs” (priority 2000, published 2004):

Experiments:
[1] = system: cyclophosphamide-induced pollakiuria rats; assay: bladder capacity of cyclophosphamide-induced pollakiuria rats under urethane anesthesia (Experimental Example 1, NK-1 + NK-2 antagonist); assay type: in vivo; conditions: for bladder capacity Before administration: cyclophosphamide 200 mg/kg i.p. the day before, baseline before i.v. drug; for bladder capacity Before administration / bladder capacity (%) increase / bladder capacity After administration: Compound No. 3 0.3 mg/kg, SR48968 10 mg/kg, mean ± standard error of 5-7 animals; for bladder capacity (%) increase / bladder capacity After administration: cyclophosphamide 200 mg/kg i.p., 10 min. after i.v. administration; for effect on bladder capacity (in words): cyclophosphamide-treated animals, i.v., sole vs combined administration at the doses of Table 1
Protocol: The effect afforded by the combined use of compound No. 3 and (±)SR48968 hydrochloride on the suppressive action on pollakiuria and urinary incontinence was shown by the ability to increase bladder capacity of cyclophosphamide-induced pollakiuria rats under a urethane anesthesia. Cyclophosphamide (200 mg/kg) or a solvent was intraperitoneally administered and the rats were subjected to the bladder capacity test the next day. […] The changes in the bladder capacity at 10 min. after administration were measured.
The data are expressed in mean±standard error.

[2] = system: cyclophosphamide-induced pollakiuria rats; assay: bladder capacity of cyclophosphamide-induced pollakiuria rats under urethane anesthesia (Experimental Example 2, NK-1 antagonist + anti-cholinergic drug); conditions: for bladder capacity Before administration: cyclophosphamide 200 mg/kg i.p. the day before, baseline before i.v. drug; for bladder capacity Before administration / bladder capacity (%) increase / bladder capacity After administration: Compound No. 3 0.3 mg/kg, oxybutynin chloride 1 mg/kg, mean ± standard error of 5-7 animals; for bladder capacity (%) increase / bladder capacity After administration: cyclophosphamide 200 mg/kg i.p., 10 min. after i.v. administration; for effect on bladder capacity (in words): cyclophosphamide-treated animals, i.v., sole vs combined administration at the doses of Table 2

Compound	bladder capacity Before administration [1]	bladder capacity (%) increase [1]	bladder capacity After administration [1]	effect on bladder capacity (in words) [1]	bladder capacity Before administration [2]	bladder capacity (%) increase [2]	bladder capacity After administration [2]	effect on bladder capacity (in words) [2]
CC(=O)NC1(c2ccccc2)CCN(CC[C@H](CN(C)C(=O)c2ccccc2)c2ccc(Cl)c(Cl)c2)CC1 (racemic) [SR48968]	0.99 ± 0.08 mL	3.8 ± 3.3%	1.03 ± 0.09 mL	does not increase the bladder capacity				
Cc1ccc(-c2c3n(c(=O)c4ncccc24)CC[C@@H](C)CN(Cc2cc(C(F)(F)F)cc(C(F)(F)F)c2)C3=O)cc1 [Compound No. 3, (9R)-7-[3,5-bis(trifluoromethyl)benzyl]-6,7,8,9,10,11-hexahydro-9-methyl-5-(4-methylphenyl)-6,13-dioxo-13H-[1,4]diazocino[2,1-g][1,7]naphthyridine]	1.06 ± 0.14 mL	−0.28 ± 5.3%	1.05 ± 0.14 mL	does not increase the bladder capacity	0.66 ± 0.08 mL	28.6 ± 12.4%	0.80 ± 0.09 mL	does not increase the bladder capacity
CCN(CC)CC#CCOC(=O)C(O)(c1ccccc1)C1CCCCC1 (stereo not shown) [oxybutynin chloride]					0.76 ± 0.13 mL	6.9 ± 12.4%	0.78 ± 0.12 mL	does not increase the bladder capacity
